Assay results published in patent US20120190580A1, “TREATMENT OF PATIENTS AFTER STENT IMPLANTATION OR BALLOON DILATATION AND DRUG ELUTING STENTS” (MAX-PLANCK-GESELLSCHAFT ZUR FORDERUNG DER WISSENSCHAFTEN …, priority 2009, published 2012).

Test system: aortae of miR-143/145 KO mice
Assay: Affymetrix GeneChip mRNA expression analysis of aortae after chronic captopril or losartan
Type: in vivo, mouse
Settings: for FC Acta1 (1427735_a_at), treated miR-143/145 KO vs. WT / FC Arhgef17 (1433682_at), treated miR-143/145 KO vs. WT / FC Cald1 (1424768_at), treated miR-143/145 KO vs. WT / FC Camk2g (1423942_a_at), treated miR-143/145 KO vs. WT / FC Cap2 (1423222_at), treated miR-143/145 KO vs. WT / FC Clcn3 (1433486_at), treated miR-143/145 KO vs. WT / FC Efemp1 (1427183_at), treated miR-143/145 KO vs. WT / FC Itga3 (1455158_at), treated miR-143/145 KO vs. WT / FC Krt8 (1420647_a_at), treated miR-143/145 KO vs. WT / FC Mc2r (1422926_at), treated miR-143/145 KO vs. WT / FC Mylk (1425506_at), treated miR-143/145 KO vs. WT / FC Mylpf (1448371_at), treated miR-143/145 KO vs. WT / FC Myoc (1450468_at), treated miR-143/145 KO vs. WT / FC Neo1 (1440789_at), treated miR-143/145 KO vs. WT / FC Npr3 (1435184_at), treated miR-143/145 KO vs. WT / FC Pde3b (1433694_at), treated miR-143/145 KO vs. WT / FC Ppp2r1b (1419871_at), treated miR-143/145 KO vs. WT / FC Prkg1 (1449876_at), treated miR-143/145 KO vs. WT / FC Rock1 (1460729_at), treated miR-143/145 KO vs. WT / FC S100a8 (1419394_s_at), treated miR-143/145 KO vs. WT / FC S100a9 (1448756_at), treated miR-143/145 KO vs. WT / FC Serca1 (1419312_at), treated miR-143/145 KO vs. WT / FC Tnnc2 (1417464_at), treated miR-143/145 KO vs. WT / FC Unc5c (1449522_at), treated miR-143/145 KO vs. WT: aorta, chronic oral treatment 20 days; for number of the 507 deregulated probe sets returned to normal (WT) levels: mutant mice, 3 weeks (20 days) oral application, p > 0.05 vs. WT, n = 3
Source text: A 129S7AB2.2 genomic BAC clone (bMQ-446B20; Sanger) was used to generate the targeting vector. Recombination in SW102 cell was employed to replace the miR-143 to miR-145 genomic region by a galK cassette (45) that was amplified by the primers flanking premiR-143 to pre-miR-145 ([…] GCggcgcgcctcagcactgtcctgctcctt; […] ACggcgcgcctgttgacaattaatcatcggca). The genomic sequence was inserted via gap repair into a pKO targeting vector containing a DTA expression cassette and 450 bp homology arms for BAC recombination resulting in a vector containing 6.5 kb of sequence 5′ of miR-143 and 5.5 kb 3′ of miR-145 from genomic sequence […] to […]. The AscI restriction sites flanking the galK cassette were used to replace the galK by a floxed IRESIacZ-NeoR cassette. The vector was electroporated into MPI II ES cells (46) and recombinant clones were identified. Recombinant ES cells were injected into blastocysts and transferred to pseudopregnant mice. Chimeric animals were backcrossed to C57BL/6 mice. Heterozygous animals were used to obtain WT and KO littermates. ES cells and mice were genotyped using an EcoRV restriction digest and a 5′ outside probe amplified from genomic DNA using oligonucleotides ([…]; […]). […] The experiments were performed in accordance with German legislation on protection of animals and were approved by the local governmental animal care committee (Regierungspraesidium Darmstadt).
Tissues were dissected from PBS perfused animals and total RNA was isolated using the Trizol method (Invitrogen). RNA quality was checked on the Agilent 2100 Bioanalyser using the RNA 6000 Nano Kit. For mRNA expression analysis the Affymetrix GeneChip Mouse Genome 430 2.0 Array was employed with the respective one-cycle target labelling protocol. Data were analysed by the RMA algorithm using the Affymetrix Expression Console. […] 507 probe sets were identified with p<0.05 and FC>1.5 or FC<0.666. For miRNA expression analysis 384 3′ C6 aminolinker DNA-oligonucleotides complementary to published miRNA (Sanger, miRBase) sequences were synthesised and spotted with eight replicates per array to Nexterion E slides. Probe labelling and hybridization followed the Agilent miRNA labelling protocol, but P-CTTTT-Alexa555 or P-CTTTTAlexa647 oligonucleotides (MWG-Biotech) were ligated to the miRNAs. Arrays were scanned and analysed with an Axon 4200B scanner and GenePix Pro 6.0. Normalisation and data analysis was performed using Acuity 4.0. For multiple tissue comparison, miRNA from tissues was labelled with the Alexa555 dye, miRNA from whole E15.5 embryos labelled with Alexa647 dye was used as a reference. Data were linear normalized to a log ratio of 1 for the ratio of medians of let-7a-g and let-7i signals. The log 2 ratio data were centered for the single miRNA expression signals (by subtracting the row mean from each value), log 2 ratio data are visualized. For Northern blot analysis 3 μg (aorta 1.5 μg) of total RNA were separated on a 15% Polyacrylamide-Urea gel (Invitrogen) and blotted on Hybond XL (Amersham). miR-145, miR-143 and U6 antisense oligonucleotides were labeled with γ-ATP and PNK (NEB) and purified using Micro Bio-Spin® 6 columns (Biorad). Hybridization was performed in Ultrahyb hybridization buffer (Ambion) at 30° C. over night. Blots were washed 2 times in 2×SSC/0.1% SDS at 25° C. (5 min) and at 42° C. (15 min). Signals were detected using a BAS-2500 imager (Fujifilm).

Row | Structure (SMILES) | FC Acta1 (1427735_a_at), treated miR-143/145 KO vs. WT | FC Arhgef17 (1433682_at), treated miR-143/145 KO vs. WT | FC Cald1 (1424768_at), treated miR-143/145 KO vs. WT | FC Camk2g (1423942_a_at), treated miR-143/145 KO vs. WT | FC Cap2 (1423222_at), treated miR-143/145 KO vs. WT | FC Clcn3 (1433486_at), treated miR-143/145 KO vs. WT | FC Efemp1 (1427183_at), treated miR-143/145 KO vs. WT | FC Itga3 (1455158_at), treated miR-143/145 KO vs. WT | FC Krt8 (1420647_a_at), treated miR-143/145 KO vs. WT | FC Mc2r (1422926_at), treated miR-143/145 KO vs. WT | FC Mylk (1425506_at), treated miR-143/145 KO vs. WT | FC Mylpf (1448371_at), treated miR-143/145 KO vs. WT | FC Myoc (1450468_at), treated miR-143/145 KO vs. WT | FC Neo1 (1440789_at), treated miR-143/145 KO vs. WT | FC Npr3 (1435184_at), treated miR-143/145 KO vs. WT | FC Pde3b (1433694_at), treated miR-143/145 KO vs. WT | FC Ppp2r1b (1419871_at), treated miR-143/145 KO vs. WT | FC Prkg1 (1449876_at), treated miR-143/145 KO vs. WT | FC Rock1 (1460729_at), treated miR-143/145 KO vs. WT | FC S100a8 (1419394_s_at), treated miR-143/145 KO vs. WT | also measured
1 | CCCCc1nc(Cl)c(CO)n1Cc1ccc(-c2ccccc2-c2nn[nH]n2)cc1 [losartan] | 0.76 | 1.11 | 1.53 | 1.17 | 1.36 | 1.27 | 0.71 | 0.84 | 1.00 | 0.70 | 1.06 | 1.05 | 0.76 | 1.27 | 1.68 | 0.87 | 0.65 | 1.16 | 1.77 | 1.83 | FC S100a9 (1448756_at), treated miR-143/145 KO vs. WT: 1.64; FC Serca1 (1419312_at), treated miR-143/145 KO vs. WT: 0.82; FC Tnnc2 (1417464_at), treated miR-143/145 KO vs. WT: 1.51; FC Unc5c (1449522_at), treated miR-143/145 KO vs. WT: 0.80; number of the 507 deregulated probe sets returned to normal (WT) levels: 220
2 | C[C@H](CS)C(=O)N1CCC[C@H]1C(=O)O [captopril] | 0.87 | 0.82 | 1.09 | 0.87 | 0.77 | 1.09 | 1.22 | 0.76 | 1.09 | 1.23 | 0.90 | 0.77 | 0.99 | 1.07 | 1.00 | 1.04 | 0.81 | 1.12 | 0.99 | 0.81 | FC S100a9 (1448756_at), treated miR-143/145 KO vs. WT: 0.78; FC Serca1 (1419312_at), treated miR-143/145 KO vs. WT: 0.72; FC Tnnc2 (1417464_at), treated miR-143/145 KO vs. WT: 1.13; FC Unc5c (1449522_at), treated miR-143/145 KO vs. WT: 0.63; number of the 507 deregulated probe sets returned to normal (WT) levels: 248
